Measurements reported in patent US6472397B1, “Nitrogen-containing heterocyclic compounds having antiplatelet aggregation effect and medicinal use thereof” (Meiji Seika Kaisha, Ltd., priority 1998, dated 2002).

Experiments:
[1] = system: human PRP (platelet rich plasma); experiment: Platelet aggregation inhibiting effect, ADP-induced, human PRP; format: cell-based; conditions: ADP final concentration 5 μM, preincubation 2 minutes, read-out: IC50 calculated from the aggregation rate
Procedure: Among the compounds represented by the general formula (I) according to the present invention, the platelet aggregation inhibiting effect of the above compound A was examined with human PRP (platelet rich plasma).
A 9 volume sample of blood was taken out through an injection syringe having 1 volume of 3.8% sodium citrate added thereto from the vein of normal human (male), centrifuged at 170×g for 10 minutes at room temperature, and the resulting supernatant was isolated as PRP. The residual blood from which PRP had been isolated was centrifuged at 2,700×g for 15 minutes, and the resulting supernatant was isolated as platelet poor plasma (PPP).
The platelet aggregation test was carried out with AGGRIGOMETER (PAM-8C) manufactured by MEBANICS. The substance to be tested is dissolved in 50% DMSO-physiological saline, 50% methanol-physiological saline, or a physiological saline. The preincubation time of the substance to be tested and PRP was set as 2 minutes. An aggregation driving agent ADP (CHRONO-PARREAGENTS384 ADP, CHRONO-LOG Corp.) was diluted with physiological saline so that the final concentration is 5 μM.
The platelet aggregation inhibiting activity was calculated from the following equation as the suppressive rate against the […] by ADP when no compound to be tested was added:
Platelet aggregation inhibiting activity (%)= [formula]

[2] = Oral administration test: bioavailability in rats; format: in vivo; conditions: result in words
Procedure: 1) Preparation of a Solution to be Administered
The compound was dissolved or suspended in either of the solvents in which the compound is preferably dispersed or dissolved including distilled water, CMC-Na, Tween 80, and HCO 60 to prepare the liquids for intravenous injection and oral administration. The liquids for intravenous injection and oral administration have a concentration of 0.3 mg/ml and 5 mg/ml, respectively. The concentrations of the compounds were determined by HPLC.
Rats having fasted for 16-20 hours were subjected to cannulation with a polyethylene tube (PE50) into femoral artery. […] The plasma samples were treated according to the method described below, and the activity substance was then measured by HPLC. […]
Among the observed values after administration, the observed values corresponding to the maximum plasma concentration (Cmax) and the time for reaching the maximum plasma concentration (Tmax) were confirmed. […] The area below the plasma concentration-time curve from 0 to infinity (AUCinfinite) was calculated by the trapezoidal method until the final observed value, and after the final observed value from the final observed value/kel as the sum of respective values. […]
Bioavailability (B.A. (%)) was calculated from the following equation: […]

Row | Compound | IC50 [1] | absorption capacity via oral administration [2]
1 | O=C(O)COc1ccc(C(=O)CN2CCN(C3CCNCC3)CC2=O)cc1 [Compound A] | 42 nM | 
2 | CCOC(=O)COc1ccc(C(=O)CNC(=O)c2cc3c(s2)CCN(C(=O)OC(C)OC(C)=O)C3)cc1OCC(=O)OCC (centres unmarked) [Compound B, Diethyl [[4-[[[[5-(1-Acetoxyethyl)oxycarbonyl-4,5,6,7-tetrahydrothieno[3,2-c]pyridin-2-yl]carbonyl]amino]-acetyl]-o-phenylene]dioxy]diacetate] |  | no high absorption capacity
